Measured values as given in patent US20250255882A1, “TREATMENT OF CARDIAC CONDITION RELATED COGNITIVE DYSFUNCTION” (The Trustees of Columbia University in the City of New York, priority 2024, published 2025).

Columns and labels:
[1] = tested on: mouse model of HF (myocardial infarction, MI); experiment: novel object recognition test (hippocampal-dependent short-term memory); assay type: in vivo; details: MI mice, treated; MI 15%±4%, SHAM 48%±5%
Text: (§1) One-way analysis of variance (ANOVA) was used to compare the difference between the six groups in FIGS. 2B, 2C, 2E and 2F. Tukey's test was used for multiple comparisons; two-way ANOVA was used in FIG. 2D. […] All statistical tests were two sided with the data derived from biologically independent samples.
Next, a novel object recognition test was used to evaluate hippocampal-dependent short-term memory. (see Liu, X. et al. Role of leaky neuronal ryanodine receptors in stress-induced cognitive dysfunction. Cell 150, 1055-1067 (2012); and Bevins, R. A. & Besheer, J. Object recognition in rats and mice: a one-trial non-matching-to-sample learning task to study ‘recognition memory’. Nat. Protoc. 1, 1306-1311 (2006)).

[2] = tested on: mouse model of HF (myocardial infarction, MI); experiment: MWM test (long-term spatial learning and memory) with probe trial; assay type: in vivo; details: MI mice, treated; for target crossings / time spent in the target quadrant: 60-s probe trial day 5; for target crossings: MI 2.4±0.3, SHAM 4.6±0.3; for time spent in the target quadrant: MI 17±1 s, SHAM 25±2 s; for latency to find and reach the hidden platform: day 4 training trials, MI 30±1 s, SHAM 21±2 s
Description: as §1
A MWM test was performed to assess hippocampal-dependent long-term spatial learning and memory.
A probe trial was performed on day 5 of the MWM test.

[3] = tested on: Ca2+-dependent enzymes, Tau and amyloid beta pathway; experiment: Alzheimer's disease-like signaling in hippocampal samples; assay type: in vivo, mouse; details: hippocampi of treated MI mice
Text: Abnormal Ca^2+ regulation can contribute to the activation of Ca^2+-dependent enzymes such as AMP-activated protein kinase (AMPK), cyclin-dependent kinase 5 (CDK5) and enhanced calpain activity. Activation of these enzymes in response to elevated cytosolic Ca^2+ levels are upstream signals of both pTau and amyloid deposits in Alzheimer's disease brains and could be a major factor in the CD observed in HF. […] We also observed an increase in p25 expression, the neurotoxic activator of CDK5, which plays an important role in amyloid precursor protein processing in AD.

[4] = tested on: germinal matrix hemorrhage; details: cited from earlier work
[5] = tested on: HIV-1-associated neurocognitive disorders; details: rat model; cited from earlier work
RyR2 [6] = molecular target: T1, RyR2 (Mus musculus, UniProt E9Q401); experiment: ER Ca2+ leak measured in microsomes from mouse hippocampi; assay type: in vivo; design: Hippocampal RyR2 was immunoprecipitated and immunoblotted to detect PTMs; from tissue; host or cells: mouse hippocampus (SHAM / MI mice, treated in vivo); details: hippocampal microsomes from treated MI mice, versus untreated MI
Description: FIG. 3E are graphs of RyR2 Po, To and Tc in the same groups as FIG. 3D. FIG. 3F is a graph of Ca^2+ leak measured in microsomes from mouse hippocampi of the same groups as FIG. 3D. […] Individual values are shown with the mean±s.e.m. […] Data are derived from biologically independent samples. All statistical tests were two sided.
PTMs and functional abnormalities of neuronal RyR2 in HF hippocampal samples from MI mice were then evaluated and compared them to SHAM. Hippocampal RyR2 was immunoprecipitated and immunoblotted to detect PTMs.
Target sequence in this assay (E9Q401 whole entry): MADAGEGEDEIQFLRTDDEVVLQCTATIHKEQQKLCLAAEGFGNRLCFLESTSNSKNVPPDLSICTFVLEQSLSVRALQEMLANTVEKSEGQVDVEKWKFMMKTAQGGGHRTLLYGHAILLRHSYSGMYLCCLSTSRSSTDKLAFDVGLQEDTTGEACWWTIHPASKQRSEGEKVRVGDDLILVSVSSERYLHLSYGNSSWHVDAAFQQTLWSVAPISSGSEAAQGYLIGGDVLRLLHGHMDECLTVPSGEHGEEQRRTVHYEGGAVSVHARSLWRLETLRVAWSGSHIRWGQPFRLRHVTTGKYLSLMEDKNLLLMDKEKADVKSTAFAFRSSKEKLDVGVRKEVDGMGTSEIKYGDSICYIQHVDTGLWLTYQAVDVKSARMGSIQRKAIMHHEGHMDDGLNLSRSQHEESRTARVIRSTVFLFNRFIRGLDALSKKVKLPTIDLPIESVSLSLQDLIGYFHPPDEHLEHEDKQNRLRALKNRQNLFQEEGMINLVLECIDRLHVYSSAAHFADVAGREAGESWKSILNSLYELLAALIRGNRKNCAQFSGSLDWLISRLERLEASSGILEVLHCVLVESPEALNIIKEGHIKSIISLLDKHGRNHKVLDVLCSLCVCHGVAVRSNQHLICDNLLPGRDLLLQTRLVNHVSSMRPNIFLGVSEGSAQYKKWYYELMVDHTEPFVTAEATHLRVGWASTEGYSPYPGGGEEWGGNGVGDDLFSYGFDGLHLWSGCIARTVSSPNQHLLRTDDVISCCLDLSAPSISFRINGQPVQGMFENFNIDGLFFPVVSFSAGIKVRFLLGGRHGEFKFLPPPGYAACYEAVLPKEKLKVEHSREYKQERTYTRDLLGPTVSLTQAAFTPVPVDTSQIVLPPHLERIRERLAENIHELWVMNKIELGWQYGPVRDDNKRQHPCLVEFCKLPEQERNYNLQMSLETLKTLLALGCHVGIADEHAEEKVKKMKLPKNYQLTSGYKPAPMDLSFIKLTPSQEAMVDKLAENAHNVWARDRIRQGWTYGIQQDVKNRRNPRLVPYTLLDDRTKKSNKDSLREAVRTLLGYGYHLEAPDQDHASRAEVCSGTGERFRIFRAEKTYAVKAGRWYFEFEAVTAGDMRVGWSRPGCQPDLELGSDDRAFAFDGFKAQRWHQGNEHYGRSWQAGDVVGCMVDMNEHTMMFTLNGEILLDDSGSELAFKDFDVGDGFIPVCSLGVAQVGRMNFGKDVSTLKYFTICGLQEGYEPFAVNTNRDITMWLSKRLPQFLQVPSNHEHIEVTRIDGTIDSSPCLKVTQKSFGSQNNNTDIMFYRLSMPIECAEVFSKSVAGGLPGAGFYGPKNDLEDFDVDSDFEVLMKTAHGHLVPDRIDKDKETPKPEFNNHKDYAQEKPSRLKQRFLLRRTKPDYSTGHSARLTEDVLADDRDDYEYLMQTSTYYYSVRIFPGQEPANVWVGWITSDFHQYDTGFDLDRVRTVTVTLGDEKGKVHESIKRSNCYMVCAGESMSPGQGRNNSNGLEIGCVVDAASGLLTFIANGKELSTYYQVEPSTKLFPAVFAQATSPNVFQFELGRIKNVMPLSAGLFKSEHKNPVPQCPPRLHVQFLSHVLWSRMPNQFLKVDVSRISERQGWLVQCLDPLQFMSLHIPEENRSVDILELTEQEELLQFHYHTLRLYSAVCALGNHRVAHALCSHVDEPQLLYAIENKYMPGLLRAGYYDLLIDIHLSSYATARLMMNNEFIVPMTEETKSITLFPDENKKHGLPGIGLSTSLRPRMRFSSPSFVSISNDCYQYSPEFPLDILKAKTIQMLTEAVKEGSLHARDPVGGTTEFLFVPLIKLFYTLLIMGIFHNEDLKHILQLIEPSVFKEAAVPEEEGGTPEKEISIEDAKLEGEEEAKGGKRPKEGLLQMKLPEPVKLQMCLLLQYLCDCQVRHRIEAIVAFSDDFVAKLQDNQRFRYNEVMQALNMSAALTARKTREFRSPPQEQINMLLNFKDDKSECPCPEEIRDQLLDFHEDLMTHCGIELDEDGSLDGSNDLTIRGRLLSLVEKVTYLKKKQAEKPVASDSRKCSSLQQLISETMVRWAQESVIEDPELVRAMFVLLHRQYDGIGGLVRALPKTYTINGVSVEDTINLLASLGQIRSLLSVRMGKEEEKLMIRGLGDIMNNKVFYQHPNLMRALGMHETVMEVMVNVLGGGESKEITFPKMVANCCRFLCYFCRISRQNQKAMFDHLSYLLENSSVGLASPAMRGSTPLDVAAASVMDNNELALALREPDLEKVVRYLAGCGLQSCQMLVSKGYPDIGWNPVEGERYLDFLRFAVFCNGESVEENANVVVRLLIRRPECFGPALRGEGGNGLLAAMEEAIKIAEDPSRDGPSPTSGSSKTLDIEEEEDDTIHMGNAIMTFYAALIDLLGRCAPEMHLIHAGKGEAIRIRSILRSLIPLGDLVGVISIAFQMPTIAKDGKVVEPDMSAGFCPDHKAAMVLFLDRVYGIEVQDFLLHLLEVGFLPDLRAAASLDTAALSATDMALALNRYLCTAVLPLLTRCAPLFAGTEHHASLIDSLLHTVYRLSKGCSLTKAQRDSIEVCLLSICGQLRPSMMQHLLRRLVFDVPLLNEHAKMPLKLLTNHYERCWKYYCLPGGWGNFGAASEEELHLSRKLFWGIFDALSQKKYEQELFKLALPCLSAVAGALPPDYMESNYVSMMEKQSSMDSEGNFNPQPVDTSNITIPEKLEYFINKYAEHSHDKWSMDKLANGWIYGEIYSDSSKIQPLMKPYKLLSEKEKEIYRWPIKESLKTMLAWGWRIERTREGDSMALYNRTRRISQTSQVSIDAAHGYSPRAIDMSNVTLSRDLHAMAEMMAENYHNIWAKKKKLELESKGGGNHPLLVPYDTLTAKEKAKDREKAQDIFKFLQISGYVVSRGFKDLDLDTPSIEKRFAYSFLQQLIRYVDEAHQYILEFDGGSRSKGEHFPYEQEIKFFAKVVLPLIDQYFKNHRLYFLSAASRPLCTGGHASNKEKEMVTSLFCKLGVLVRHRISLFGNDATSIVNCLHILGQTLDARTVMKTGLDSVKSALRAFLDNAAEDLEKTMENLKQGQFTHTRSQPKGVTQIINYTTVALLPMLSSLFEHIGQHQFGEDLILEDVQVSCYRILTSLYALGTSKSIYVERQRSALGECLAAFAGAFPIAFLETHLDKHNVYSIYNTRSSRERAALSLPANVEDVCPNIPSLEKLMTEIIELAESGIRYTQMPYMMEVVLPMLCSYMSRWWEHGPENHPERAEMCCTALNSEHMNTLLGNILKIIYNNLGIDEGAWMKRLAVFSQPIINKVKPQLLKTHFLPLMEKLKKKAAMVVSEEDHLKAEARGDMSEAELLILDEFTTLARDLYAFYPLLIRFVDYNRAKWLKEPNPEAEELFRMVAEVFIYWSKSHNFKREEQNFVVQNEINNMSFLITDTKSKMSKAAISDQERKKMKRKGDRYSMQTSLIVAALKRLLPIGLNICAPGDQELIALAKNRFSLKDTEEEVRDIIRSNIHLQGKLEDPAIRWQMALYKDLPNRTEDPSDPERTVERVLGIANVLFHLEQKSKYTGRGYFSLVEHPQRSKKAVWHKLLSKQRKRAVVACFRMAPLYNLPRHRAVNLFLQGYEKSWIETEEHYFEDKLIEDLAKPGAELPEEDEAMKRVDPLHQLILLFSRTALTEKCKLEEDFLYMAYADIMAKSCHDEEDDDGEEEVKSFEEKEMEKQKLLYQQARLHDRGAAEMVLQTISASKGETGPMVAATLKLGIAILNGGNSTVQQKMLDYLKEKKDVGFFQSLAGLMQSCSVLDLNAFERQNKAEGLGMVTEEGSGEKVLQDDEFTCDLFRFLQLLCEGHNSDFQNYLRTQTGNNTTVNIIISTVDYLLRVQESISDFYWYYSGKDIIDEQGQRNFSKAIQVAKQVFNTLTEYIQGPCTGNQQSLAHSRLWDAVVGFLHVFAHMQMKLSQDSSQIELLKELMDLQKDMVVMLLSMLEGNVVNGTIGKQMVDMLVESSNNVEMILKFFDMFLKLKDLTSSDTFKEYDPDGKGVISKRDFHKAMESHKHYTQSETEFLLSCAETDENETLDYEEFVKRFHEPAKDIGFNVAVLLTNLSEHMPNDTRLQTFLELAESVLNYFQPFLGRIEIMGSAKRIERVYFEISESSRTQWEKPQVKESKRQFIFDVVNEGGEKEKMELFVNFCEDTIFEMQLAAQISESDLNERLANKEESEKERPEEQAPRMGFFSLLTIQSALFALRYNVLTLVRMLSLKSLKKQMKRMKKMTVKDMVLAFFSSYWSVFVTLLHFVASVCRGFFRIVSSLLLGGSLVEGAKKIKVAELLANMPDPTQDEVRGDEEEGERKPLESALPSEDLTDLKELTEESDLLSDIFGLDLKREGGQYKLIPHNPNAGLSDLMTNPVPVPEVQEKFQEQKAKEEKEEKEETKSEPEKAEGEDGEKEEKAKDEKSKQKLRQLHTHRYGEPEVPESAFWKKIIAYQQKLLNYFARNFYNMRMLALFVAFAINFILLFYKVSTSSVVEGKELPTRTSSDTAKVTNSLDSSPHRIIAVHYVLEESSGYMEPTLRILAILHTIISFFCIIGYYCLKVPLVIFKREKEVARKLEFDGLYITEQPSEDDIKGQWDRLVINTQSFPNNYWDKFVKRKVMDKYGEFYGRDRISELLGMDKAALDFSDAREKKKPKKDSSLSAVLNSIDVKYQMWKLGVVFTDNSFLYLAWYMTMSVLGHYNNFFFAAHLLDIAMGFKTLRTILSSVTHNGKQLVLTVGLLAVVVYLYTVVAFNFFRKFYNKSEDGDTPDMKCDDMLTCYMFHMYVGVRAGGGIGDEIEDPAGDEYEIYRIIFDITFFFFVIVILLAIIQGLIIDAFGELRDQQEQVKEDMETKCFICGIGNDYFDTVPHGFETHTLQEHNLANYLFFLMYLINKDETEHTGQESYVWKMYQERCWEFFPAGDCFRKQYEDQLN
Target sequence in this assay (Q9Z2I2 whole entry partner): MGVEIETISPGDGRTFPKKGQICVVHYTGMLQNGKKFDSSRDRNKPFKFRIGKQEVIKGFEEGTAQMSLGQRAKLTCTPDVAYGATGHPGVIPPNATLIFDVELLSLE

[7] = tested on: amyloid and Tau pathology; details: Alzheimer's transgenic mice; cited from earlier work
healthy individuals = details: sustaining cognitive performance over time; cited from earlier work
RyR2 [8] = molecular target: T1, RyR2; experiment: caffeine-induced Ca2+ release in primary hippocampal neurons; assay type: cell-based; design: representative images of 14-d cultured hippocampal neurons stimulated with 10 mM caffeine; endogenous in cells; host or cells: primary hippocampal neurons, 14 d in culture; details: 10 mM caffeine; neurons treated with isoproterenol plus compound
Description: FIG. 5A presents representative images of 14-d cultured hippocampal neurons stimulated with 10 mM caffeine. For each condition, the Ca^2+ levels are shown at baseline, during stimulation and at recovery. […] Individual values are shown with the mean±s.e.m. […] Scale bar, 10 μm. A reduction in caffeine-induced Ca^2+ release indicates a Ca^2+ depleted ER due to persistent RyR2-mediated Ca^2+ leak. Data are derived from biologically independent samples. All statistical tests were two sided.
To determine whether the activation of the adrenergic pathway indeed causes neuronal RyR2-mediated ER Ca^2+ leak, caffeine (10 mM), a well characterized RyR agonist, was used to assess RyR2 function specifically in hippocampal neurons without interference of other cell types such as glial cells or astrocytes.
Target sequence in this assay (E9Q401 whole entry): as the sequence (E9Q401 whole entry) above

| Compound | discrimination index [1] | target crossings [2] | time spent in the target quadrant [2] | latency to find and reach the hidden platform [2] | changes in AMPK, GSK3B, CaMKII, Tau phosphorylation, p25, BACE1 and βCTF [3] | motor and cognitive function ([4]; rat model of germinal matrix hemorrhage) | germinal matrix hemorrhage ([4]; rat model) | spatial learning [5] | ER Ca2+ leak (RyR2 [6]) | amyloid and Tau pathology [7] | effects on cognition (healthy individuals) | prevention of the small caffeine-induced Ca2+ release of isoproterenol-treated neurons (RyR2 [8]) |
| --- | --- | --- | --- | --- | --- | --- | --- | --- | --- | --- | --- | --- |
| Fc1ccc(Cl)cc1-c1nc(Nc2ccncc2)c2nccnc2n1 [SD-208] | 35%±6% | 4.5±0.6 | 27 ± 2 s | 15 ± 3 s | prevented/attenuated | partial recovery | inhibit germinal matrix hemorrhage | improved | reduced | – | – | – |
| CC(C)NCC(O)COc1cccc2ccccc12 (stereo not shown) [propranolol] | – | 3.5±0.6 | 26 ± 2 s | 17 ± 3 s | prevented/attenuated | – | – | – | – | reduced | beneficial effects | prevented |
